Tests used:
Assay type in all cases: cell-based
Details in all cases: HEK293 cells co-transfected with PPAR LBD-GAL4 and UAS-luciferase; 18-24 hrs treatment
PPAR delta = biological target: T1, PPAR delta (Homo sapiens, UniProt Q03181); test: Transfection assay for PPAR receptors (GAL4-LBD luciferase reporter in HEK293 cells), PPAR delta
T1 construct: expressed in transfected cells; host or cells: HEK293
T1 sequence (Q03181 211-439 limits assumed): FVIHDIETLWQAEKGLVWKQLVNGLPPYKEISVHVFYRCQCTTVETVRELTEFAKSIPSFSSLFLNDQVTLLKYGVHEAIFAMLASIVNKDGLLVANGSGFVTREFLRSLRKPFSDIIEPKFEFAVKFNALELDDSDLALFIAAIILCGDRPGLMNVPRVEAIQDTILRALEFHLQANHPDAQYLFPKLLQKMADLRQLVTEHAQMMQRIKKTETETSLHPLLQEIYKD
Experimental: (§1) Transfection Assay Method for PPAR Receptors
(§2) HEK293 cells were grown in DMEM/F12 medium supplemented with 10% FBS and glutamine (Invitrogen) and incubated in a 5% CO2 incubator at 37° C. The cells were co-transfected using DMRIE-C reagent (Invitrogen) in serum free medium (Opti-MEM, Invitrogen) with two mammalian expression plasmids, one containing the DNA sequence coding for the ligand binding domains of either PPARα, γ or 6 fused to the yeast GAL4 DNA binding domain and the other containing the promoter sequence of the yeast GAL4 (UAS) fused to the firefly luciferase cDNA reporter. The next day, the medium was changed to DMEM/F12 medium supplemented with 5% charcoal treated serum (Hyclone) and glutamine. After 6 hrs the cells were trypsinized and seeded at a density of 50,000 cells/well into 96 well plates and incubated overnight as above. The cells were then treated with test compounds or vehicle and incubated for 18-24 hrs as above. Luciferase reporter activity was measured using the Steady-Glo Luciferase Assay Kit from Promega. DMRIE-C Reagent was purchased from GIBCO Cat. No. 10459-014. OPTI-MEM I Reduced Serum Medium was purchased from GIBCO (Cat. No. 31985). Steady-Glo Luciferase Assay Kit was purchased from Promega (Part# E254B).
(§3) A variety of example compounds have been made and tested, with a range of in vitro results. […]

PPAR gamma = biological target: T2, PPAR gamma (Homo sapiens, UniProt P37231); test: Transfection assay for PPAR receptors (GAL4-LBD luciferase reporter in HEK293 cells), PPAR gamma
T2 construct: expressed in transfected cells; host or cells: HEK293
T2 sequence (P37231 238-503 limits assumed): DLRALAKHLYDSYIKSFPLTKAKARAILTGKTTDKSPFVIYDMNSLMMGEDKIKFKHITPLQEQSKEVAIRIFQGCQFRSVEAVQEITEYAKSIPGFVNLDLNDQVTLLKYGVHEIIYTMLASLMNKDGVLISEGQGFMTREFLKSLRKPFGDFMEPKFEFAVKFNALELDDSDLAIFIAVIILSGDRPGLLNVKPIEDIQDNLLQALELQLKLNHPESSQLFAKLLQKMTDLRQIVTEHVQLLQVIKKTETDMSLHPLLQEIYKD
Experimental: as §1, §2, §3

PPAR alpha = biological target: T3, PPAR alpha (Homo sapiens, UniProt Q07869); test: Transfection assay for PPAR receptors (GAL4-LBD luciferase reporter in HEK293 cells), PPAR alpha
T3 construct: expressed in transfected cells; host or cells: HEK293
T3 sequence (Q07869 239-466 limits assumed): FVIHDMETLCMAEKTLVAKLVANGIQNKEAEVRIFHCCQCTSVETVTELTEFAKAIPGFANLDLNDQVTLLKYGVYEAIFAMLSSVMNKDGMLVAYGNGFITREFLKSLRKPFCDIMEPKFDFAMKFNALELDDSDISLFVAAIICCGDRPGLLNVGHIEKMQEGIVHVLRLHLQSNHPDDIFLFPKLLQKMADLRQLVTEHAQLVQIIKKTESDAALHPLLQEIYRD
Experimental: as §1, §2, §3

C=C(COc1ccc(OC(F)(F)F)cc1)CSc1ccc(OC(C)(C)C(=O)O)c(C)c1 [Compound 2]
EC50 (PPAR delta): 41.5 nM
EC50 (PPAR gamma): 899 nM
EC50 (PPAR alpha): 900 nM

Reference: patent publication US7875744B2, “4-((phenoxyalkyl)thio)-phenoxyacetic acids and analogs” (Janssen Pharmaceutica NV, priority 2004, dated 2011)
